Consider two molecules from US5219867A, “Platelet aggregation inhibitory agents” (priority 1992, dated 1993).

Entries after “also recorded” stand apart in the source; their conditions may differ. Counter-ions that a name gives are not always drawn. Like-named read-outs stand apart in the source and are kept apart here.

In one assay the test system is human blood platelets. The assay can be described thus: In vitro inhibition of ADP-induced human platelet aggregation (platelet-rich plasma, aggregometer). The class given is cell-based. The note with it: for IC50: Homo sapiens, Platelet; for Potency in inhibiting aggregation relative to rac-I: in vitro platelet aggregation. Here is the method: Procedure for Determining In Vitro Platelet Aggregation-Inhibitory Activity. Adenosine diphosphate (ADP) was used to induce platelet aggregation and was utilized as the sodium salt. A 10 mM stock solution was prepared fresh before each use in modified Tyrode's buffer and working dilutions were prepared with modified Tyrode's buffer immediately prior to use. The buffer contained NaCl (137.00 mM), KCl (2.70 mM), NaHCO3 (11.90 mM), NaH2 PO4 H2 O (0.36 mM) and glucose (5.60 mM) in redistilled water. Adjustment to pH 7.4 was effected by addition of 1N HCl.
The blood was transferred into plastic centrifuge tubes containing 3.2% sodium citrate (blood/citrate ratio 8:1) and centrifuged at 120Xg for 15 minutes at 23° C., yielding platelet-rich plasma (PRP); platelet-poor-plasma (PPP) was obtained by centrifugation of citrated whole blood at 1,100Xg for 15 min at 23° C. The platelet count of PRP was determined and adjusted to a final count of 300,000 platelet per mm^3 by dilution with autologous PPP. […] The plasma so obtained was transferred using a 1.0 ml Centaur pipette into a 50 ml polyethylene centrifuge tube. In order to maintain plasma pH in the appropriate range, the air in the tubes are displaced gently (2 minutes) with a 5% (CO2 -95% air (v/v) mixture and the tube capped. The plasma was maintained at 37° C. in a water bath until used in the aggregation experiments.
Assays of platelet aggregation were performed at least in duplicate, using plasma acquired from different donors, employing a method developed by Quintana, et al. (Quintana, et al., Relationships Between the Chemical Constitution of Carbamoylpiperidines and Related Compounds, and Their Inhibition of ADP-Induced Human Blood Platelet Aggregation, Thromb. Res. Vol. 22, Pages 665-680, 1981); Quintana, et al., Effects of Ethanol and of Other Factors on ADP-Induced Aggregation of Human Blood Platelets in Vitro, Thromb. Res., Vol. 20, Pages 405-415, 1980) (cf. Born, Nature, Vol. 194, Pages 927-929, 1962) and Mustard, et al., J. Lab. Clin. Med., Vol. 64, Pages 548-559, 1964).
Initially, in each experiment, 0.45-ml aliquots of PRP were placed in siliconized cuvettes and stirred (1,100 rpm) in the aggregometer at 37° C. to ascertain the absence of spontaneous aggregation. Appropriate ADP solutions (50 μl) were subsequently injected using a Hamilton microliter syringe to determine the minimal concentration eliciting maximal biphasic aggregation. […] In each case, the concentration of ADP so determined was used in eliciting aggregation throughout each specific set of aggregometric evaluations.
0.5 μl of a solution of the evaluant compound in redistilled 95% ethanol was injected into a stirred ([…]) 0.4-ml aliquot of plasma in a siliconized cuvette in the aggregometer-well (37° C). After 15 seconds, the cuvette was transferred to an incubator (also at 37° C.) and the contents held at this temperature, without stirring, until 2 minutes postinjection. The cuvette was then returned to the aggregometer-well, a base-line being recorded for 2 minutes to detect any spontaneous aggregation. At exactly 4 minutes after injection of the evaluant solution, 50 μl of the appropriate ADP solution was injected and aggregation recorded for 5.5 minutes. Evaluants were studied at least 4 different concentrations. Control experiments (ethanol in a final concentration of 0.095% v/v) were performed in conditions parallel with those involving the respective evaluants, and were initiated either 1 minute prior to or 1 minute after the start of experiments employing the test compounds. This permitted injections to be made precisely at the specified times.

Another assay concerns human platelets. The experiment in a line: Inhibition of collagen-induced aggregation, washed aequorin-loaded platelet suspension. The class given is cell-based. The note with it: for IC50: Homo sapiens, Platelet, collagen-induced aggregation (n = 4), HEPES-buffered saline, 1.0 mM CaCl2, read-out: Ia50 ± S.E. Collagen-induced. The procedure: Procedure for Cytosolic Ionized Calcium Determination. The basic procedure of Yamaguchi, et al. (Thromb. Res., Vol. 44, Pages 165-174, 1986) was followed. Blood was collected from six blood donors, aged 24-38 years, who had fasted overnight and affirmed abstinence from alcohol, caffeine and medications of any kind for a period of at least one week prior to donation. […] Platelets were collected (800 g, 15 min), resuspended in and washed (800 g, 15 min) with HEPES-buffered saline (140 mM NaCl, 2.7 mM KCl, 0.1% bovine albumin, 0.5% glucose, 3.8 mM HEPES, pH 7.6) with EGTA (5 mM) and PGE1 (1 μM). The platelet pellet was resuspended in 90 μl of the same buffer and added to 20μl of 3 mg/ml aequorin solution in a 1.5 ml Eppendorf centrifuge tube. Six 1 μl aliquots of DMSO were added at 90 second intervals with brief, gentle mixing on a Vortex mixer and the platelet suspension was incubated 2 minutes after the last addition. One ml of HEPES-buffered saline was added, gently mixed, and again incubated for 2 minutes. The platelets were pelleted (1000 g, 30 sec), resuspended in HEPES-buffered saline to which was added either 1 mM Mg Cl2, (calcium-free buffer) or 1 mM Mg Cl2 and 1 mM Ca Cl2 (calcium buffer), depending on the experiment. The platelet count was adjusted to 3-4×10^5 platelets/μl.
The Platelet Ionized Calcium Aggregometer (Chrono-Log Corp., Ltd., Havertown, Pa.) was used to obtain simultaneous aggregation and luminescence data under the following experimental conditions: (1) platelet suspension, 1 ml, was equilibrated at 37° C. with stirring at 1100 rpm; (2) 100 μl (1.2 μg) of fibrinogen was added; (3) the vehicle (95% ethanol) or the test compound in vehicle was added; (4) when needed, 10 μl of the desired concentration of EGTA was added 30 seconds prior to addition of the agonist; then (5) the agonist (Collagen, 5 μg or 20 μg) was added and the time noted. At one minute after addition of the agonist in Channel 1, a platelet sample containing fibrinogen in Channel 2 was lysed with 10 μl of a 1:1 solution of Triton X-100 (final concentration 0.005%) 10 mM CaCl2 (final concentration 0.5 mM). Treated and control […] data were corrected for time dependent decay of fluorescence using data from the untreated lysed controls.
Normally 4 compound-treated samples (at 4 different concentrations) interspersed with 3 control samples were evaluated at 4.5 minute intervals starting 18-23 minutes after the DMSO treatment. The Ia50 values were calculated as described earlier. The compound concentrations effecting 50% inhibition (Ica50) of collagen-induced cytosolic ionized calcium values was determined by linear regression analysis.
Compounds I-rac, (+)-I,(IC) and (-)-I(IA) were evaluated. The Ia50 (collagen-induced aggregation) and Ica50 (compound concentration required to inhibit by 50% the collagen-induced rise in cytosolic ionized calcium)values determined with platelet suspensions in HEPES-buffered saline containing 1.0 mM CaCl2 were as follows: […]

`CCN(CC)C(=O)C1CCCN(Cc2ccc(CN3CCCC(C(=O)N(CC)CC)C3)cc2)C1` (racemic) [Compound I, α-α'-Bis[3-(N,N-diethyl-carbamoyl)piperidino]-p-xylene dihydrobromide]: the IC50 in the assay with human blood platelets (read-out: IC50 (compound concentration which inhibits ADP-induced platelet aggregation by 50%) ± S.E., racemic compounds, ADP-induced) was 44.5 ± 12.7 µM; in the assay on human blood platelets (read-out: Ia50 (compound concentrations affecting 50% inhibition of aggregation) ± S.E., Table II, ADP-induced, n = 5 for (0)I and 6 for all others), 44.5 ± 127 µM; in the assay on human blood platelets (read-out: Ia50 ± S.E. ADP-Induced, table 3, ADP-induced (n = 5-6)), 44.5 µM; with human platelets it was 20.2 µM.
For `CCN(CC)C(=O)C1CCCN(Cc2ccc(CN3CCCC(C(=O)N(CC)CC)C3)cc2)C1` (single isomer, unassigned) [IC, α-α'-Bis(3-N,N-diethylcarbamoyl)piperidino]-p-xylene dihydrobromide], the “Potency in inhibiting aggregation relative to (-)-I (antipode)” value with human blood platelets (ADP as agonist, in vitro) was determined as 15 times. Besides, the IC50 was 15.3 ± 3.9 µM in the assay with human blood platelets (Table II, ADP-induced, n = 5 for (0)I and 6 for all others, read-out: Ia50 (compound concentrations affecting 50% inhibition of aggregation) ± S.E.); 15.3 ± 3.9 µM in the assay on human blood platelets (table 3, ADP-induced (n = 5-6), read-out: Ia50 ± S.E. ADP-Induced); 10.7 ± 2.7 µM in the assay on human platelets. Also, in the assay on human blood platelets (as compared to racemic (I) / other stereoisomers, listed as (+) enantiomer, dihydrobromide), the “Activity as a platelet aggregation inhibitor, in words” value is on record as “unexepectedly superior activity; also recorded: possesses most of the therapeutic activity”. Besides, the “Potency in inhibiting aggregation relative to rac-I” value is listed as “three times more potent” in the assay on human blood platelets (dihydrobromide) and “two to three times more potent” in the assay with human blood platelets (listed as (+) enantiomer of Compound I, dihydrobromide). Further, the “Potency in inhibiting aggregation relative to (-)-I” value in the assay with human platelets (collagen as agonist, in vitro) stood at 18 times.
